Measurements reported in patent US10179939B2, “Growth-independent detection of cells” (GeneWeave Biosciences, Inc., priority 2014, dated 2019).

What was measured:
[1] = tested on: MRSA; experiment: Non-replicative transduction particle luxAB reporter assay with cefoxitin; assay type: cell-based, S. aureus; conditions: cells phenotypically resistant to cefoxitin (MRSA); cefoxitin added prior to, simultaneously with, or after transduction particles
Source text: (§1) To test the functionality of non-replicative transduction particles as reporters for detecting the presence of S. aureus cells, various MSSA/MRSA reporter assays were developed. In an embodiment, a non-replicative transduction particle was developed from a S. aureus-specific bacteriophage, and the bacterial luciferase genes luxAB under the control of a constitutive promoter were incorporated. When the non-replicative transduction particle delivered the reporter nucleic acid into S. aureus, the constitutive promoter expressed luxAB suitable for reporting on the presence of a viable S. aureus.
(§2) In addition, the antibiotic cefoxitin was added prior to, simultaneously with, or after the addition of the transduction particles to a sample containing S. aureus cells.

[2] = tested on: MSSA; experiment: as above; assay type: cell-based, S. aureus; conditions: cells not phenotypically resistant to cefoxitin (MSSA); cefoxitin added prior to, simultaneously with, or after transduction particles
Source text: as §1, §2

CO[C@@]1(NC(=O)Cc2cccs2)C(=O)N2C(C(=O)O)=C(COC(N)=O)CS[C@@H]21 [cefoxitin]
luminescence [1]: increased or detectable luminescence | luminescence [2]: decreased or eliminated
